Key:
AMARE = assay: greenhouse pre-emergence herbicidal test; assay type: in vivo, Amaranthus retroflexus; details: pre-emergence method, application rate 0.250 kg/ha, scale from 0 to 100
Source text: (§1) The seeds of the test plants were sown separately for each species. For the pre-emergence treatment, the active ingredients, which had been suspended or emulsified in water, were applied directly after sowing by means of finely distributing nozzles. The containers were irrigated gently to promote germination and growth and subsequently covered with transparent plastic hoods until the plants had rooted. This cover caused uniform germination of the test plants, unless this had been impaired by the active ingredients. Depending on the species, the plants were kept at 10-25° C. or 20-35° C., respectively. The test period extended over 2 to 4 weeks. During this time, the plants were tended, and their response to the individual treatments was evaluated. Evaluation was carried out using a scale from 0 to 100. 100 means no emergence of the plants, or complete destruction of at least the aerial moieties, and 0 means no damage, or normal course of growth. A moderate herbicidal activity is given at values of at least 60, a good herbicidal activity is given at values of at least 70, and a very good herbicidal activity is given at values of at least 85. The plants used in the greenhouse experiments were of the following species: [table]

APESV = assay: greenhouse pre-emergence herbicidal test; assay type: in vivo, Apera spica-venti; details: pre-emergence method, application rate 0.250 kg/ha, scale from 0 to 100
Source text: as §1

For `CC(C)(F)c1nc(N)nc(Nc2c(F)cccc2OC2CCCC2)n1` [Example 1, N2-[2-(Cyclopentoxy)-6-Fluoro-Phenyl]-6-(1-Fluoro-1-Methyl-Ethyl)-1,3,5-Triazine-2,4-Diamine], which “herbicidal activity against AMARE” value (AMARE) is on record?
The value was “very good (a very good herbicidal activity is given at values of at least 85)”.

What about the “herbicidal activity against APESV” value (APESV) of the same compound?
Its value is “good (a good herbicidal activity is given at values of at least 70)”.
